Reference: patent publication US9341839B2, “Electrowetting display device and dye composition for electrowetting display” (FUJIFILM CORPORATION, priority 2012, dated 2016)

Assay: Solubility of dye in normal decane
Type: physicochemical
Conditions: n-decane, 25° C., after heating to 50° C. and leaving 12 hours; 40% by mass added

## tetraphenylporphine [Comparative compound H-1]
  Solubility in Decane: less than 0.1% by mass
